Measurements reported in patent US5556996A, “Oxiranyls disubstituted with a phenyl group and a substituted chromanyl or tetrahydroquinolinyl group having retinoid like activity” (Allergan, priority 1994, dated 1996).

Test system: ornithine decarboxylase (ODC)
Test: Inhibition of TPA induction of ornithine decarboxylase (ODC assay)
Type: biochemical
Conditions: TPA-induced ODC activity
Excerpt: The retinoic acid-like activity of these compounds is confirmed through the classic measure of retinoic acid activity involving the effects of retinoic acid on ornithine decarboxylase. The original work on the correlation between retinoic acid and decrease in cell proliferation was done by Verma & Boutwell, Cancer Research, 1977, 37,2196-2201. That reference discloses that ornithine decarboxylase (ODC) activity increased precedent to polyamine biosynthesis. It has been established elsewhere that increases in polyamine synthesis can be correlated or associated with cellular proliferation. Thus, if ODC activity could be inhibited, cell hyperproliferation could be modulated. Although all cases for ODC activity increases are unknown, it is known that 12-0-tetradecanoylphorbol-13-acetate (TPA) induces ODC activity. Retinoic acid inhibits this induction of ODC activity by TPA. […] Activity of exemplary compounds of the present invention in the above-described ODC assay is disclosed in Table 1 which provides IC80 data for the exemplary compounds. ("IC80 " is that concentration of the test compound which causes 80% inhibition in the ODC assay).

Row | Structure (SMILES) | IC80 conc (concentration of the test compound which causes 80% inhibition in the ODC assay) [nmols]
1 | CCOC(=O)c1ccc([C@@H]2O[C@@]2(C)c2ccc3c(c2)C(C)(C)CC(C)(C)O3)cc1 (relative stereo) [Compound 1, Ethyl(±)-(E)-4-[2-methyl-2-(2,2,4,4-tetramethylchroman-6-yl)oxiran-1-yl]benzoate] | > 300
2 | CC1(C)CC(C)(C)c2cc([C@]3(C)O[C@H]3c3ccc(C(=O)O)cc3)ccc2O1 (relative stereo) [Compound 2, (±)-(E)T4-[2-methyl-2-(2,2,4,4-tetramethylchroman-6-yl)oxiran-1-yl]benzoic acid] | 73
